The values that follow come from patent publication US20240409585A1, “MACROCYCLIC IMMUNOMODULATORS” (priority 2021, published 2024).

Each structure is given as a SMILES string. Bridge positions count the residues as written; N and C are the ends. Square brackets hold non-standard residues; d marks the D form. Peptide text beside a SMILES is read from it. * marks the point of attachment. Tyr(3-NO2) = N[C@@H](Cc1ccc(O)c([N+](=O)[O-])c1)C(=O)O; Phe(4-COOH) = N[C@@H](Cc1ccc(C(=O)O)cc1)C(=O)O; Bip = N[C@@H](Cc1ccc(-c2ccccc2)cc1)C(=O)O; Phe(3-OMe) = COc1cccc(C[C@H](N)C(=O)O)c1; Phe(3-Me) = Cc1cccc(C[C@H](N)C(=O)O)c1; Val(3-OH) = CC(C)(O)[C@H](N)C(=O)O; mTyr = N[C@@H](Cc1cccc(O)c1)C(=O)O; aIle = CC[C@@H](C)[C@H](N)C(=O)O; 3Pal = N[C@@H](Cc1cccnc1)C(=O)O; 4Pal = N[C@@H](Cc1ccncc1)C(=O)O; 3Thi = N[C@@H](Cc1ccsc1)C(=O)O; Cha = N[C@@H](CC1CCCCC1)C(=O)O; Carboxymethyl = O=C(O)C*; NMeA = CN[C@@H](C)C(=O)O; dAbu = CC[C@@H](N)C(=O)O; Dab = NCC[C@H](N)C(=O)O; Dap = NC[C@H](N)C(=O)O

The assay concerns the target T1, PE-labeled human PD-L1-Ig binding to Jurkat cell line over-expressing human PD-1 (Jurkat-PD-1) (Homo sapiens, UniProt Q15116).
T1 construct: expressed in transfected cells; host or cells: Jurkat
Description: Jurkat-PD-1 Cell Binding High-Content Screening Assay (CBA): Method 1. Particulars: Jurkat-hPD-1 cells, PE-labeled PD-L1-Ig 20 nM final; read-out: Jurkat HPDL1 PD1 IC50 (uM) (Method 1).

T1 sequence (Q15116 25-288): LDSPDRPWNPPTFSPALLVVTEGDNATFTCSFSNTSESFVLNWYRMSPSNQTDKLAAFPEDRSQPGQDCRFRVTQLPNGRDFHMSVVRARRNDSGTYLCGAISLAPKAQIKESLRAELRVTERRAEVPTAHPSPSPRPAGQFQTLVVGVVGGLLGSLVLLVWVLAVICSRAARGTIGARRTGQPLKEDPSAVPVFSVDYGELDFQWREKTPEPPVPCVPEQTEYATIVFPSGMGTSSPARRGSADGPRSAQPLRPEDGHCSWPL

Consider `CC(C)C[C@@H]1NC(=O)[C@H](CCN)NC(=O)[C@@H](CC(C)C)NC(=O)[C@H](C)N(C)C(=O)[C@H](CCCNC(=N)N)NC(=O)[C@H](Cc2ccc(-c3ccccc3)cc2)NC(=O)[C@H](C(C)C)NC(=O)[C@H](Cc2c[nH]c3ccccc23)NC(=O)[C@H](CC(=O)O)NC(=O)[C@H](Cc2ccc(O)c([N+](=O)[O-])c2)NC(=O)[C@H](CC(N)=O)NC(=O)CSC[C@@H](C(=O)N[C@@H](C)C(N)=O)NC(=O)[C@H]([C@@H](C)O)NC(=O)[C@H](C(C)C)NC1=O` [Compound 1160] ({CH2CO}-N[Tyr(3-NO2)]DWV[Bip]R[NMeA][dL][Dab]LVTCA-NH2; thioether N-14), for which the IC50 (commonly the point on the concentration scale where inhibition reaches its midpoint) worked out at 0.03 µM.

For the molecule `CC(C)C[C@@H]1NC(=O)[C@H](CCN)NC(=O)[C@@H](CC(C)C)NC(=O)[C@H](C)N(C)C(=O)[C@H](C(C)C)NC(=O)[C@H](Cc2ccc(-c3ccccc3)cc2)NC(=O)[C@H](C(C)C)NC(=O)[C@H](Cc2c[nH]c3ccccc23)NC(=O)[C@H](CC(=O)O)NC(=O)[C@H](Cc2cccc(O)c2)NC(=O)[C@H](CC(N)=O)NC(=O)CSC[C@@H](C(=O)N[C@@H](C)C(N)=O)NC(=O)[C@H]([C@@H](C)O)NC(=O)[C@H](C(C)C)NC1=O` [Compound 1384] ({CH2CO}-N[mTyr]DWV[Bip]V[NMeA][dL][Dab]LVTCA-NH2; thioether N-14), the IC50 is 0.02 µM.

For `Cc1cccc(C[C@@H]2NC(=O)[C@H](CC(=O)O)NC(=O)[C@H](Cc3ccncc3)NC(=O)[C@H](Cc3ccc(OCC(=O)O)cc3)NC(=O)CSC[C@@H](C(N)=O)NC(=O)[C@H](CO)NC(=O)[C@H](C(C)C)NC(=O)[C@H](CC(C)C)NC(=O)[C@H](CC(N)=O)NC(=O)[C@@H](CC(C)C)NC(=O)[C@H](C)N(C)C(=O)[C@H](C(C)C)NC(=O)[C@H](Cc3ccc(-c4ccccc4)cc3)NC(=O)[C@H](CC(C)C)NC2=O)c1` [Compound 1595] ({CH2CO}-Y(Carboxymethyl)[4Pal]D[Phe(3-Me)]L[Bip]V[NMeA][dL]NLVSC-NH2; thioether N-14), the IC50 is 0.01 µM.

Turning to `CC[C@@H](C)[C@@H]1NC(=O)[C@H](Cc2ccc(-c3ccccc3)cc2)NC(=O)[C@H](CC(C)C)NC(=O)[C@H](Cc2cccc(C)c2)NC(=O)[C@H](CC(=O)O)NC(=O)[C@H](Cc2ccc(OCC(=O)O)cc2)NC(=O)[C@H](CN)NC(=O)CSC[C@@H](C(N)=O)NC(=O)[C@H](CO)NC(=O)[C@H](C(C)C)NC(=O)[C@H](CC(C)C)NC(=O)[C@H](CC(N)=O)NC(=O)[C@@H](CC(C)C)NC(=O)[C@H](C)N(C)C1=O` [Compound 1640] ({CH2CO}-[Dap]Y(Carboxymethyl)D[Phe(3-Me)]L[Bip][aIle][NMeA][dL]NLVSC-NH2; thioether N-14), the IC50 was found to be 0.1 µM.

`CC(C)C[C@H]1NC(=O)[C@H](C)N(C)C(=O)[C@H](Cc2ccc(OCC(=O)O)cc2)NC(=O)[C@H](Cc2ccc(-c3ccccc3)cc2)NC(=O)[C@H](Cc2ccc(C(=O)O)cc2)NC(=O)[C@H](Cc2c[nH]c3ccccc23)NC(=O)[C@H](CC(=O)O)NC(=O)[C@H](Cc2ccc(OCC(=O)O)cc2)NC(=O)[C@H](Cc2ccsc2)NC(=O)CSC[C@@H](C(=O)N[C@@H](CCN)C(N)=O)NC(=O)[C@H](CO)NC(=O)[C@H](C(C)(C)O)NC(=O)[C@H](CC2CCCCC2)NC(=O)[C@H](CCN)NC1=O` [Compound 2130] ({CH2CO}-[3Thi]Y(Carboxymethyl)DW[Phe(4-COOH)][Bip]Y(Carboxymethyl)[NMeA][dL][Dab][Cha][Val(3-OH)]SC[Dab]-NH2; thioether N-14): the IC50 is 0.03 µM.

In the case of `Cc1cccc(C[C@@H]2NC(=O)[C@H](CC(=O)O)NC(=O)[C@H](Cc3cccnc3)NC(=O)[C@H](CN)NC(=O)CSC[C@@H](C(=O)N[C@@H](C)C(N)=O)NC(=O)[C@H](CO)NC(=O)[C@H](C(C)C)NC(=O)[C@H](CC(C)C)NC(=O)[C@H](CC(N)=O)NC(=O)[C@@H](C)NC(=O)[C@H](C)N(C)C(=O)[C@H](C(C)C)NC(=O)[C@H](Cc3ccc(-c4ccccc4)cc3)NC(=O)[C@H](CC(C)C)NC2=O)c1` [Compound 1584] ({CH2CO}-[Dap][3Pal]D[Phe(3-Me)]L[Bip]V[NMeA][dA]NLVSCA-NH2; thioether N-14), the half-maximal inhibitory concentration (IC50) came out at 0.02 µM.

Turning to `COc1cccc(C[C@@H]2NC(=O)[C@H](CC(=O)O)NC(=O)[C@H](Cc3ccc(O)cc3)NC(=O)[C@H](CC(N)=O)NC(=O)CSC[C@@H](C(=O)N[C@@H](C)C(N)=O)NC(=O)[C@H]([C@@H](C)O)NC(=O)[C@H](C(C)C)NC(=O)[C@H](CC(C)C)NC(=O)[C@H](CCCNC(=N)N)NC(=O)[C@@H](CC(C)C)NC(=O)[C@H](C)N(C)C(=O)[C@H](C(C)C)NC(=O)[C@H](Cc3ccc(-c4ccccc4)cc3)NC(=O)[C@H](C(C)C)NC2=O)c1` [Compound 1292] ({CH2CO}-NYD[Phe(3-OMe)]V[Bip]V[NMeA][dL]RLVTCA-NH2; thioether N-14), the IC50 was determined as 0.03 µM.

Regarding `CC[C@H]1NC(=O)[C@H](C)N(C)C(=O)[C@H](CCCNC(=N)N)NC(=O)[C@H](Cc2ccc(-c3ccccc3)cc2)NC(=O)[C@H](C(C)C)NC(=O)[C@H](Cc2c[nH]c3ccccc23)NC(=O)[C@H](CC(=O)O)NC(=O)[C@H](Cc2ccc(O)cc2)NC(=O)[C@H](Cc2ccccc2)NC(=O)CSC[C@@H](C(=O)N[C@@H](C)C(N)=O)NC(=O)[C@H]([C@@H](C)O)NC(=O)[C@H](C(C)C)NC(=O)[C@H](CC(C)C)NC(=O)[C@H](CCCNC(=N)N)NC1=O` [Compound 1069] ({CH2CO}-FYDWV[Bip]R[NMeA][dAbu]RLVTCA-NH2; thioether N-14), the IC50 came to 0.22 µM.

Regarding `CC(=O)NCCCC[C@@H]1NC(=O)[C@H](C(C)C)NC(=O)[C@H](CC2CCCCC2)NC(=O)[C@H](CCN)NC(=O)[C@@H](CC(C)C)NC(=O)[C@H](C)N(C)C(=O)[C@H](CCC(N)=O)NC(=O)[C@H](Cc2ccc(-c3ccccc3)cc2)NC(=O)[C@H](Cc2ccc(OCC(=O)O)cc2)NC(=O)[C@H](Cc2cccc(C)c2)NC(=O)[C@H](CC(=O)O)NC(=O)[C@H](Cc2ccc(OCC(=O)O)cc2)NC(=O)[C@H](Cc2ccncc2)NC(=O)CSC[C@@H](C(=O)N[C@@H](CCN)C(N)=O)NC1=O` [Compound 2203] ({CH2CO}-[4Pal]Y(Carboxymethyl)D[Phe(3-Me)]Y(Carboxymethyl)[Bip]Q[NMeA][dL][Dab][Cha]VK(Ac)C[Dab]-NH2; thioether N-14), the IC50 was 0.01 µM.

`CC(C)C[C@@H]1NC(=O)[C@H](CCN)NC(=O)[C@@H](CC(C)C)NC(=O)[C@H](C)N(C)C(=O)[C@H](CCCNC(=N)N)NC(=O)[C@H](Cc2ccc(-c3ccccc3)cc2)NC(=O)[C@H](C(C)C)NC(=O)[C@H](Cc2c[nH]c3ccccc23)NC(=O)[C@H](CC(=O)O)NC(=O)[C@H](Cc2cnc[nH]2)NC(=O)[C@H](Cc2cnc[nH]2)NC(=O)CSC[C@@H](C(=O)N[C@@H](C)C(N)=O)NC(=O)[C@H]([C@@H](C)O)NC(=O)[C@H](C(C)C)NC1=O` [Compound 1142] ({CH2CO}-HHDWV[Bip]R[NMeA][dL][Dab]LVTCA-NH2; thioether N-14): the 50% inhibitory concentration (IC50) was found to be 0.24 µM.

As for `CC[C@H](C)[C@@H]1NC(=O)[C@H](Cc2ccc(-c3ccccc3)cc2)NC(=O)[C@H](C(C)C)NC(=O)[C@H](Cc2c[nH]c3ccccc23)NC(=O)[C@H](CC(=O)O)NC(=O)[C@H](Cc2ccc(O)cc2)NC(=O)[C@H](Cc2ccccc2)NC(=O)CSC[C@@H](C(=O)N[C@@H](C)C(N)=O)NC(=O)[C@H]([C@@H](C)O)NC(=O)[C@H](C(C)C)NC(=O)[C@H](CC2CCCCC2)NC(=O)[C@H](CCCNC(=N)N)NC(=O)[C@@H](CC(C)C)NC(=O)[C@H](C)N(C)C1=O` [Compound 1494] ({CH2CO}-FYDWV[Bip]I[NMeA][dL]R[Cha]VTCA-NH2; thioether N-14), the IC50 came out at 0.05 µM.
